In patent publication US12673959B2, “Polysubstituted imidazolo[4,5-c][1,2]thiazine derivative and use thereof” (KYUNGPOOK NATIONAL UNIVERSITY INDUSTRY-ACADEMIC COOPERATION …, priority 2020, dated 2026):

Test system: CLP-induced sepsis mouse model
Test: Survival rate in cecal ligation and puncture (CLP)-induced sepsis mouse model
Format: in vivo
Conditions: ICR male mice; compound administered intravenously into tail 12 hours and 50 hours after surgery; FIG. 1
Experimental: The anti-inflammatory efficacy of the prepared compound was tested by the survival rate of peritonitis-induced sepsis mouse model. CLP-induced sepsis mouse models were prepared by in vivo methods to verify anti-inflammatory activity, and the preparation method is a widely used experimental method [Wang H, Nat. Med., 2004, 10, 1216-1221]. Forty 6-week-old ICR male mice were divided into 10 mice in each group and the survival rate was observed.
First, the male mice were given respiratory anesthesia using isoflurane, an incision of about 2 cm was made in the middle of the abdomen to take out the appendix adjacent to the intestine, a 5.0. mm portion from the tip of the appendix was ligated with a 3.0-silk suture and pierced once with a 22-gauge needle, and then the incision was closed again with a 4.0-silk suture. Sham mice were sutured without tying or piercing the appendix after incision, and the compound prepared 12 hours and 50 hours after surgery was administered intravenously into mouse tail.

## CCN1c2nc(N3CCCC3)n(C)c2C(=O)C(c2ccc(Cl)cc2)S1(=O)=O (stereo not shown) [Compound 1-42, 3-(4-chlorophenyl)-1-ethyl-5-methyl-6-(pyrrolidin-1-yl)-3,5-dihydroimidazo[4,5-c][1,2]thiazine-4(1H)-one 2,2-dioxide]
  survival rate of the CLP-induced sepsis mouse model increased compared to a group of which only CLP was performed: 60%
